The source of these data is the supplement of paper PMC10307832.

Holding throughout (assay): relative viability (nuclei count vs DMSO), 5 days (fraction); higher = more cells survive
Compound in one experiment: CC(C)=CC[C@@H](O)C1=CC(=O)c2c(O)ccc(O)c2C1=O [Shikonin]
In a few lines:
(§1)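 Cells of lung cancer lines were placed in 1536-well plates and kept overnight at 37 °C. Pinning then delivered five library-drug doses (not always all listed), spaced by √10, onto plates anchored with vehicle, and the cells were left 5 days without changing medium. One step fixed, permeabilised and stained them with Hoechst, and MetaXpress counted nuclei in 4× images. Viability, as a median over plates, is treated-well nuclei divided by vehicle-well nuclei, with acceptance only at control CV below 25% and at least one doubling.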

Compound in experiment [1]: CC(C)N(CCCNC(=O)Nc1ccc(C(C)(C)C)cc1)C[C@H]1O[C@@H](n2ccc3c(N)ncnc32)[C@H](O)[C@@H]1O
In a few lines:
as §1

Compound in the experiment “Shikonin + Palbociclib”: CC(C)=CC[C@@H](O)C1=CC(=O)c2c(O)ccc(O)c2C1=O [Shikonin] + CC(=O)c1c(C)c2cnc(Nc3ccc(N4CCNCC4)cn3)nc2n(C2CCCC2)c1=O [Palbociclib] (partner 0.5 µM)
In outline: (§2)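 Values are medians from duplicate plates. Each reflects relative viability, defined as the nuclei count of treated wells over that of vehicle wells. Lung cancer cell lines in 1536-well plates were pin-tool dosed one day after seeding with one drug alone or with a fixed anchor-drug dose plus five library-drug doses (not always all listed) in √10 steps, then fixed, stained and imaged at 4× after 5 days.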

Compound in the experiment “Shikonin + Tozasertib”: CC(C)=CC[C@@H](O)C1=CC(=O)c2c(O)ccc(O)c2C1=O [Shikonin] + Cc1cc(Nc2cc(N3CCN(C)CC3)nc(Sc3ccc(NC(=O)C4CC4)cc3)n2)n[nH]1 [Tozasertib] (partner 0.1 µM)
In a few lines: as §2

On to UMC-11, for which the relative viability with Shikonin (0.01 µM) is 0.943; with Shikonin (0.1 µM) it was 0.993; with Shikonin (0.3162 µM) it was 1.07; with Shikonin (1 µM), 1.08; in experiment [1] (0.08 µM), 0.953; in experiment [1] (0.253 µM), 0.875. The relative viability in experiment [1] (0.8 µM) was 0.82; in experiment [1] (2.53 µM), 0.999; in experiment [1] (8 µM), 1.01; with Shikonin + Palbociclib (first compound 0.01 µM), 0.297; with Shikonin + Palbociclib (first compound 0.1 µM), 0.351; in the experiment with Shikonin + Palbociclib (first compound 0.3162 µM) it was 0.335. Besides, the relative viability in the experiment with Shikonin + Palbociclib (first compound 1 µM) worked out at 0.338; with Shikonin + Tozasertib (first compound 0.01 µM), 0.185; in the experiment with Shikonin + Tozasertib (first compound 0.1 µM), 0.213; with Shikonin + Tozasertib (first compound 0.3162 µM) it was 0.203; with Shikonin + Tozasertib (first compound 1 µM), 0.169.
